Measured values taken from patent US4569943A, “Physiologically active substance P-23924, its production and use” (Takeda Chemical Industries, Ltd., priority 1982, dated 1986).

Key:
[1] = test system: collagen biosynthesis (uterus); test: Collagen biosynthesis suppressant activity in uterus of estradiol-17β treated rats (method of T. Ishimaru et al); assay type: in vivo, SD rats; settings: for Body weight of rats / Collagen content of uterus / Total protein content of uterus: groups of 10; for % Inhibition: Non-collagenous protein: total protein content - collagen
Text: (b) Collagen biosynthesis suppressant activity: In accordance with the method of T. Ishimaru et al [Biochemical Pharmacology 31, 915 (1982)], P-23924 was intraperitoneally administered to SD rats (females, 3 weeks old) once daily for 6 consecutive days and the collagen content and non-collagenous protein content of the uterus were compared with those of control animals. […] I | said tests, rats were used in groups of 10 individuals.

[2] = Solubility; assay type: physicochemical
[3] = target: T1, Protocollagen prolyl hydroxylase (Gallus gallus, UniProt P16924); test: Protocollagen prolyl hydroxylase inhibiting activity (method of R. E. Rhoads, substrate (Pro-Pro-Gly)5.4H2O); assay type: biochemical, chick embryo; settings: for IC50: 100 μg (as protein) of partially purified enzyme preparation from chick embryo, read-out: Concentration of P-23924 required for a 50% inhibition; for inhibition at 12.5 µM: 12.5 μM compound, 100 μg enzyme
T1 construct: partially purified enzyme preparation derived from chick embryo; from tissue; host or cells: chick embryo (partially purified enzyme preparation)
T1 sequence (P16924 1-516): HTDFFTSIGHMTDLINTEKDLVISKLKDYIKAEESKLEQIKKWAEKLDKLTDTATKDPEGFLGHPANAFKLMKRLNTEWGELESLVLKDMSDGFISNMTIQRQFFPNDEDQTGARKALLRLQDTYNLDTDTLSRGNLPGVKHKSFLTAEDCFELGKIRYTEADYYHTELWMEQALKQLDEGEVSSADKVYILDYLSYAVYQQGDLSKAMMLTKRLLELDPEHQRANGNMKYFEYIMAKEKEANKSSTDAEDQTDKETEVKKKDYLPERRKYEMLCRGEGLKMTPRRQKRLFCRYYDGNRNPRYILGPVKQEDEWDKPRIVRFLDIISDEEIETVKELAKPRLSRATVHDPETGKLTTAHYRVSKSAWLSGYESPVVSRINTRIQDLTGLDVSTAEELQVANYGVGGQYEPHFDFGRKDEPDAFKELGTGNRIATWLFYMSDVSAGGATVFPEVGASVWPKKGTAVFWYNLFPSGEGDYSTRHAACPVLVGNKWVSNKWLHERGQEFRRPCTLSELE
T1 sequence (P09102 23-515 partner): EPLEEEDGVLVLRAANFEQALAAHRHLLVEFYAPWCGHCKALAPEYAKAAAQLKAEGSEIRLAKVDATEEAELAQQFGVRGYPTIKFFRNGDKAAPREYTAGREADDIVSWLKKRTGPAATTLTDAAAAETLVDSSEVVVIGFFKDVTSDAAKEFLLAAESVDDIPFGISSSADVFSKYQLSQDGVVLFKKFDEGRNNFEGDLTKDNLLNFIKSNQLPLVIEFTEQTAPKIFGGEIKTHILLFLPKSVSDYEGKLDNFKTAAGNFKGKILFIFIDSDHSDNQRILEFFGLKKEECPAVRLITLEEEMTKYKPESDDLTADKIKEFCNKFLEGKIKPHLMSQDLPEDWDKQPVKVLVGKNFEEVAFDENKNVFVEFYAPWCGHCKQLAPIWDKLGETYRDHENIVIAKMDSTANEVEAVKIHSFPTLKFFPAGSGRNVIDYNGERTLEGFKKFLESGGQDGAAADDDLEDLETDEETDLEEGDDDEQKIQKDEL
Procedure: (a) Protocollagen prolyl hydroxylase inhibiting activity: This inhibitory activity was assayed by the method of R. E. Rhoads [Methods in Enzymology XVII B, 306 (1971)] using a partially purified enzyme preparation derived from chick embryo in accordance with the methods of K. I. Kivirriko et al and J. Halme et al. [Journal of Biological Chemistry 242, 4007 (1967) and Biochimica et Biophysica Acta 198, 460 (1967)] and, as the substrate, (Pro-Pro-Gly)5.4H2 O [manufactured by Tanpakushitsu Kenkyu Shoreikai (Protein Research Foundation Society), Osaka, Japan]. The concentrations of P-23924 required for a 50% inhibition of 100 μg (as protein) of said partially purified enzyme preparation were as follows.
On the other hand, by a similar procedure as above, the protocollagen prolyl hydroxylase inhibiting activities on the compounds of P-23924 AR, BR, CR and DR are measured.

[4] = Acute toxicity [LD50] by the intraperitoneal route; settings: rat, in vivo, ip, rats
Text: The acute toxicity [LD50 ] values of P-23924 in rats by the intraperitoneal route are given below.

[5] = Description (acidity, fat solubility); assay type: physicochemical
[6] = target: T1, Protocollagen prolyl hydroxylase; test: Protocollagen prolyl hydroxylase inhibiting activity (method of R. E. Rhoads, substrate (Pro-Pro-Gly)5.4H2O); assay type: biochemical, chick embryo; settings: 3.13 μM compound, 20 μg enzyme
[7] = 1 mg/kg i.p. once daily 6 days + Estradiol-17β (5 μg), P < 0.05 (B: P < 0.02, C: P < 0.01)
[8] = 1 mg/kg i.p. once daily 6 days + Estradiol-17β (5 μg)
[9] = in acetone, chloroform, n-hexane and petroleum ether
[10] = in dimethyl sulfoxide, dimethylformamide, pyridine and 5% aqueous sodium hydrogen carbonate
[11] = in methanol, dioxane and acetic acid
[12] = in dimethylsulfoxide, pyridine, ethyl acetate, chloroform, dioxan
[13] = 50 mg/kg i.p. once daily 6 days + Estradiol-17β (5 μg)
[14] = in chloroform, n-hexane and petroleum ether

Row | Structure (SMILES) | % Inhibition: Collagen [1, 7] | Body weight of rats [1, 8] | Collagen content of uterus [1, 8] | Total protein content of uterus [1, 8] | % Inhibition: Non-collagenous protein [1, 8] | Solubility [2, 9] | Solubility [2, 10] | Solubility [2, 11] | Solubility ([2]; in water) | IC50 [3] | LD50 [4] | Description [5] | Solubility [2, 12] | Solubility ([2]; in n-hexane, petroleum ether) | inhibition at 12.5 µM [3] | inhibition at 3.13 µM [6] | further results
1 | COC1=C(CO)C(=O)c2c(cc(OC)c(CSCC(NC(C)=O)C(=O)O)c2O)C1=O (stereo not shown) [P-23924F] | 38% | 71 ± 3 g | 2.47 ± 0.57 mg | 15.20 ± 1.53 mg | 15% | slightly soluble or insoluble | easily soluble | soluble | slightly soluble or insoluble | 21 µM | 50 to 100 mg/kg | acidic and fat-soluble | – | – | – | – | –
2 | COc1cc2c(c(O)c1CSCC(NC(C)=O)C(=O)O)C(=O)C(C)=CC2=O (stereo not shown) [P-23924A] | 33% | 73 ± 3 g | 2.53 ± 0.35 mg | 15.67 ± 1.63 mg | 10% | slightly soluble or insoluble | easily soluble | soluble | slightly soluble or insoluble | 67 µM | 100 to 200 mg/kg | acidic and fat-soluble | – | – | – | – | –
3 | COC1=C(C)C(=O)c2c(cc(OC)c(CSCC(NC(C)=O)C(=O)O)c2O)C1=O (stereo not shown) [P-23924B] | 46% | 70 ± 5 g | 2.37 ± 0.43 mg | – | 19% | slightly soluble or insoluble | easily soluble | soluble | slightly soluble or insoluble | 95 µM | 50 to 100 mg/kg | acidic and fat-soluble | – | – | – | – | –
4 | COc1cc2c(c(O)c1C)C(=O)C(C)=CC2=O [P-23924 AR] | – | – | – | – | – | – | – | – | slightly soluble or insoluble | – | – | – | readily or easily soluble | slightly soluble or insoluble | 26% | 37% | –
5 | COC1=CC(=O)c2c(cc(OC)c(C)c2O)C1=O [P-23924 CR] | – | – | – | – | – | – | – | – | slightly soluble or insoluble | – | – | – | readily or easily soluble | slightly soluble or insoluble | 33% | 40% | –
6 | COC1=C(C)C(=O)c2c(cc(O)c(CSCC(NC(C)=O)C(=O)O)c2O)C1=O (stereo not shown) [P-23924D] | – | – | – | – | – | slightly soluble or insoluble | easily soluble | soluble | slightly soluble or insoluble | 270 µM | > 400 mg/kg | acidic and fat-soluble | – | – | – | – | % Inhibition: Collagen ([1]; 50 mg/kg i.p. once daily 6 days + Estradiol-17β (5 μg), P < 0.05): 32%; Body weight of rats [1, 13]: 72 ± 3 g; Collagen content of uterus [1, 13]: 2.55 ± 0.30 mg; Total protein content of uterus [1, 13]: 15.63 ± 1.43 mg; % Inhibition: Non-collagenous protein [1, 13]: 11%
7 | COC1=C(C)C(=O)c2c(cc(O)c(C)c2O)C1=O [P-23924 DR] | – | – | – | – | – | – | – | – | slightly soluble or insoluble | – | – | – | readily or easily soluble | slightly soluble or insoluble | 20% | 33% | –
8 | COC1=CC(=O)c2c(cc(OC)c(CSCC(NC(C)=O)C(=O)O)c2O)C1=O (stereo not shown) [P-23924C] | 61% | 73 ± 6 g | 2.19 ± 0.49 mg | 14.01 ± 1.51 mg | 30% | – | easily soluble | – | slightly soluble or insoluble | 57 µM | 100 to 200 mg/kg | acidic and fat-soluble | – | – | – | – | Solubility [2, 14]: slightly soluble or insoluble; Solubility ([2]; in methanol, dioxane, acetone and acetic acid): soluble
9 | COc1cc2c(c(O)c1CSCC(NC(C)=O)C(=O)O)C(=O)C(CO)=CC2=O (stereo not shown) [P-23924E] | 34% | 72 ± 4 g | 2.52 ± 0.36 mg | 15.73 ± 1.59 mg | 9% | – | – | – | slightly soluble or insoluble | 21 µM | ~50 mg/kg | acidic and fat-soluble | – | – | – | – | Solubility [2, 14]: slightly soluble or insoluble; Solubility ([2]; in dimethyl sulfoxide, dimethylformamide, pyridine, 5% aqueous sodium hydrogen carbonate and methanol): easily soluble; Solubility ([2]; in dioxane and acetic acid): soluble
10 | COC1=C(C)C(=O)c2c(cc(OC)c(C)c2O)C1=O [P-23924 BR] | – | – | – | – | – | – | – | – | slightly soluble or insoluble | – | – | – | readily or easily soluble | slightly soluble or insoluble | 22% | 26% | –
